Key:
[1] = biological target: NAD-dependent histone deacetylase SIR2 (Saccharomyces cerevisiae S288c) (UniProt P06700); assay: Inhibition of Ura3 gene expressing yeast NAD-dependent HDAC activity of Sir2 assessed as growth inhibition at 50 uM after 24 to 48 hrs by reporter silencing assay in presence of 5-fluoro orotic acid
[2] = biological target: NAD-dependent histone deacetylase SIR2 (Saccharomyces cerevisiae S288c, UniProt P06700); assay: Inhibition of Ura3 gene expressing yeast NAD-dependent HDAC activity of Sir2 assessed as growth inhibition after 24 to 48 hrs by reporter silencing assay in absence of 5-fluoro orotic acid
[3] = biological target: NAD-dependent histone deacetylase SIR2 (Saccharomyces cerevisiae S288c) (UniProt P06700); assay: Inhibition of Ura3 gene expressing yeast NAD-dependent HDAC activity of Sir2 assessed as growth inhibition after 24 to 48 hrs by reporter silencing assay in presence of 5-fluoro orotic acid

Sequence of NAD-dependent histone deacetylase SIR2 (Saccharomyces cerevisiae S288c) (P06700 whole entry): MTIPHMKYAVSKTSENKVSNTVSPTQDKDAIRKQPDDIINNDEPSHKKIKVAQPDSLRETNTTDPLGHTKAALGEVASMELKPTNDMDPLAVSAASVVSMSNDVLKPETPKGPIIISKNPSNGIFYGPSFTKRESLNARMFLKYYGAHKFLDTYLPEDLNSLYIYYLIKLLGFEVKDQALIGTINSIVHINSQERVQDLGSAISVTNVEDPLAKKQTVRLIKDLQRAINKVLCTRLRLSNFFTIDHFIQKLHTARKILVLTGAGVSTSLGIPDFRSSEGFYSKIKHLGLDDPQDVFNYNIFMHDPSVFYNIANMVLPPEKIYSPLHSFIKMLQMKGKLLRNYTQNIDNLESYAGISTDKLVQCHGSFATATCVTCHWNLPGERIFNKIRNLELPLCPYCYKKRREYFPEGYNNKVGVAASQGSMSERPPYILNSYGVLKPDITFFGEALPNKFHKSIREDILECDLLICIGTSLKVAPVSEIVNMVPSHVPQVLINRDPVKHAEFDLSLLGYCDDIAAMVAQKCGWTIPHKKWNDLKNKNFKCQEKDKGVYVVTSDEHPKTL
Sequence of NAD-dependent histone deacetylase SIR2 (P06700 whole entry): as above

inhibition [1] [%]	inhibition [3]	Compound	Activity [2]
37		O=S(=O)(c1ccccc1)n1c(-c2ccccc2)cc2cccnc21	
10		CCCCCc1cc2cccnc2n1S(=O)(=O)c1ccccc1	
15		O=S(=O)(c1ccccc1)n1c(CCO)cc2cccnc21	
30		CC(O)c1cc2cccnc2n1S(=O)(=O)c1ccccc1 (configuration not stated)	
10		N#CCCCc1cc2cccnc2n1S(=O)(=O)c1ccccc1	
12		O=S(=O)(c1ccccc1)n1c(CCCCl)cc2cccnc21	
		O=S(=O)(c1ccccc1)n1c(CO)cc2cccnc21	Non-toxic
40	Dose-dependent effect	CS(=O)(=O)n1c(-c2ccccc2)cc2cccnc21	Non-toxic
42		CC(C)(C)c1cc2cccnc2n1S(=O)(=O)c1ccccc1	Non-toxic
